{"source": "patent US8026233B2", "about": "“P38 inhibitors and methods of use thereof” (Array BioPharma Inc., priority 2006, dated 2011)", "settings_in_all_cases": "stated in words only", "key": {"bioavailability": {"assay": "bioavailability", "type": "in vivo"}, "first pass metabolism": {"assay": "first pass metabolism"}, "[1]": {"target": "p-glycoprotein (PGP) transporter (Homo sapiens, UniProt P08183)", "sequence (P08183 whole entry)": "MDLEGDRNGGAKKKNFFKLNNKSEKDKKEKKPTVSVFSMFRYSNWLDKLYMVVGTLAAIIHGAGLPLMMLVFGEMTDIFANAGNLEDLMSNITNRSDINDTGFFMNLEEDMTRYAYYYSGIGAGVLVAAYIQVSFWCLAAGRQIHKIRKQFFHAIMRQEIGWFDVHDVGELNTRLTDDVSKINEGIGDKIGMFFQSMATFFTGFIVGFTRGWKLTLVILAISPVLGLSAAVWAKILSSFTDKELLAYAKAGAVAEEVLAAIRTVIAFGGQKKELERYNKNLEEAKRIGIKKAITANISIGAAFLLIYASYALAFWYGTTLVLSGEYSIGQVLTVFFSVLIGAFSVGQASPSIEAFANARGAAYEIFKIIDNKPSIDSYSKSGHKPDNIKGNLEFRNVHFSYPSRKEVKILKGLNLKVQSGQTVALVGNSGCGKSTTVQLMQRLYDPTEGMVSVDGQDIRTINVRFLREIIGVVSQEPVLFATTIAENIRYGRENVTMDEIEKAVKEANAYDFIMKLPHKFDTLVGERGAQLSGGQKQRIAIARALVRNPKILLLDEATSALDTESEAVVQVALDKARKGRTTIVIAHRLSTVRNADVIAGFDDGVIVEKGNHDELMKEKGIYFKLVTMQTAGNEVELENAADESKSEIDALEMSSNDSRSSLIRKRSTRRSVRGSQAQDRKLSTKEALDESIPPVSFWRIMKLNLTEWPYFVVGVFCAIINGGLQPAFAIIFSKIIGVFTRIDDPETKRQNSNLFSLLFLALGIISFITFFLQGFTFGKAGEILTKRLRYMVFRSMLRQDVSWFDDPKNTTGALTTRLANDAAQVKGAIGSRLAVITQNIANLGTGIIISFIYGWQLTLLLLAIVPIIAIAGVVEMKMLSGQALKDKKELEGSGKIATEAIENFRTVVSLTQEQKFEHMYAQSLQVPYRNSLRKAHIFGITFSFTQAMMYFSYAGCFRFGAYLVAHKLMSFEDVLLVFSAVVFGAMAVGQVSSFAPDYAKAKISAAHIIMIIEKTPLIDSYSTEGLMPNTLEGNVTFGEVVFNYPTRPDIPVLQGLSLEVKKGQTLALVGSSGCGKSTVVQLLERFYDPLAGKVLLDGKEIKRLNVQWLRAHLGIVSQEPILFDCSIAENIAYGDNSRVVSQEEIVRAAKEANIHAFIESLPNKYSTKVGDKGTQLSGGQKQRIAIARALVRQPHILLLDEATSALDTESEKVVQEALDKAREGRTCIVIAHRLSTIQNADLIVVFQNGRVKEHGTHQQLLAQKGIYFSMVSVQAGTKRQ", "assay": "affinity for p-glycoprotein transporter"}, "hERG channel": {"target": "hERG channel (Homo sapiens, UniProt Q12809)", "sequence (Q12809 whole entry)": "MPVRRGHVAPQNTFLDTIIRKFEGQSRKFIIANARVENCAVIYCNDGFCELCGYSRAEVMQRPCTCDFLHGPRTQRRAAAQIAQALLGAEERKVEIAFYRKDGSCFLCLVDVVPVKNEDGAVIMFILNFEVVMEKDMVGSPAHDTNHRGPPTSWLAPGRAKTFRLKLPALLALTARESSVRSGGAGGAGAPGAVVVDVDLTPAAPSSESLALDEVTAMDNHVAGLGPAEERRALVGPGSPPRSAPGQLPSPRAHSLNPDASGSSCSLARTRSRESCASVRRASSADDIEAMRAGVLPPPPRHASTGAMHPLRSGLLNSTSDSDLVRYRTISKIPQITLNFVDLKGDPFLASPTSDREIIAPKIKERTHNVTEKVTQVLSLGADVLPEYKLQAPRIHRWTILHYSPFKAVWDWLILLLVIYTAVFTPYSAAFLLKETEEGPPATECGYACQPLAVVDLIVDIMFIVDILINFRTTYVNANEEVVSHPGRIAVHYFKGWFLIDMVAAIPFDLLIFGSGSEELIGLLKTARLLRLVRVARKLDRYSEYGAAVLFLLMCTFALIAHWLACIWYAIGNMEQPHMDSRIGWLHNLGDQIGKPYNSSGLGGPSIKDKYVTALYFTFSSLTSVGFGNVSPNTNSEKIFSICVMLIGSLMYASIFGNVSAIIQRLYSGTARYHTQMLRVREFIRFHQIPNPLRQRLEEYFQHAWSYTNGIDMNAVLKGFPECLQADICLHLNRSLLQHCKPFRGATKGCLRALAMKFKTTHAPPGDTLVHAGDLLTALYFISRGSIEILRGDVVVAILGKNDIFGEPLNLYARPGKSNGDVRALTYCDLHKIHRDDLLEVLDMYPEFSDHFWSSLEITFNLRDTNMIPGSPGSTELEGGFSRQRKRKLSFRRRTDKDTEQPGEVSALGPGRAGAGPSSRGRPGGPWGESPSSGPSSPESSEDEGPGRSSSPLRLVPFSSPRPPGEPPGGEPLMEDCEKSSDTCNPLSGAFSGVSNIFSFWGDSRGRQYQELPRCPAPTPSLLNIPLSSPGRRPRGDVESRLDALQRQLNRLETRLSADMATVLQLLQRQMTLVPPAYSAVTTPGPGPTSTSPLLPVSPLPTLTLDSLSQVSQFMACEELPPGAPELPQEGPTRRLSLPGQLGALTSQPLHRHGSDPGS", "assay": "activity in the hERG channel"}}}
{"smiles": "CC(C)(F)Cn1ncc2cc(Oc3ccc(F)cc3F)c(C(=O)N[C@H]3CCNC3=O)cc21", "note": "[Example 27, (S)-5-(2,4-difluorophenoxy)-1-(2-fluoro-2-methylpropyl)-N-(2-oxopyrrolidin-3-yl)-1H-indazole-6-carboxamide]", "values": [{"measurement": "bioavailability", "setting": "bioavailability", "result": "relatively good"}, {"measurement": "first pass metabolism", "setting": "first pass metabolism", "result": "relatively low"}, {"measurement": "affinity for p-glycoprotein (PGP) transporter (which affects cell permeability)", "setting": "[1]", "result": "low affinity"}, {"measurement": "activity in the hERG channel (a predictor for cardiac side effects)", "setting": "hERG channel", "result": "low activity"}]}
